This is an account of results in US11844779B2, “PKC-Delta-I inhibitor formulations and uses thereof” (University of South Florida, priority 2016, dated 2023).

In data set [1] the target is T1, PKCδI (Mus musculus, UniProt P28867).
T1 construct: endogenous in cells; host or cells: 3T3L1 (differentiating pre-adipocytes, day 1; mature adipocytes, day 6)
Description: Western blot on differentiating 3T3L1 cells (inhibitors added day 1 of differentiation). It counts as cell-based. As to conditions: 3T3L1, inhibitors added day 1 of differentiation, 24 h; for cleavage and release of the PKCδI catalytic domain: C-terminal PKCδ antibody. Here is the method:
The compounds identified from the docking modeling were tested for their ability to inhibit PKCδI. 3T3L1 cells were plated in 60 mm dishes and differentiated. PKCδI regulates cell cycle during differentiation of pre-adipocytes to adipocytes. The inhibitors were added on day 1 of differentiation during mitotic clonal expansion when PKCδI expression is high (18). After 24 h, the cells were harvested and western blot analysis was performed on whole cell lysates.
A general note: Immunoblotting shows a protein as a band on a membrane.

For data set [2], the target named is T1, PKCδI. Description: Western blot on mature adipocytes (inhibitors added day 6 of differentiation). It counts as cell-based. As to conditions: for phosphorylation of myelin basic protein (PKCδI substrate) / cleavage and release of the PKCδI catalytic domain: mature adipocytes, inhibitors added day 6 of differentiation, 24 h; for cleavage and release of the PKCδI catalytic domain: C-terminal PKCδ antibody. Here is the method: Next, compounds 5139627, 5320091, 72950115, 28578828, 61397826 and 43844983 were tested on mature adipocytes. The inhibitors were added on day 6 of differentiation when the adipocytes are lipid laden. After 24 h, the cells were harvested and western blot analysis was performed on whole cell lysates.

For data set [3], the target named is T2, PKCδI (Homo sapiens, UniProt Q05655). Put plainly: In vitro kinase assay with recombinant PKCδI and SC35 as substrate. The class given is biochemical. As to conditions: 10 nM, 30 min incubation prior to assay, phosphatidyl serine and ATP. The procedure:
Next, in vitro kinase assays were performed with recombinant proteins PKCδI and SC35 (as substrate) in a kinase buffer containing phosphatidyl serine and ATP; with and without 10 nM 5139627, 28578828 (30 min incubation prior to assay).

In data set [4] the target is T2, PKCδI. Description: PKC kinase activity kit, colorimetric assay (ENZO). The class given is biochemical. As to conditions: run in triplicate. The procedure: (§1) Briefly, a Protein Kinase C (PKC) kinase activity kit was used and a colorimetric assay (ENZO; run in triplicate) was performed. Relative kinase activity was calculated as (average absorbance of PKC isozyme−Average absorbance of blank)/quantity of pure kinase used per assay.

The subject of a further data set is other PKCs. Description: PKC kinase activity kit, colorimetric assay (ENZO), other PKC isozymes. As to conditions: run in triplicate. The class given is biochemical. The procedure:
as §1

Another data set concerns obese adipocytes. Description: WST-1 assay for cell viability. The class given is cell-based. Conditions: 10 nM. The procedure:
A WST-1 assay performed using obese adipocytes treated with 513627 to evaluate toxicity of compound 513627. Briefly, obese adipocytes were treated with 10 nM of compound 513627 and a WST-1 assay for cell viability was performed. FIG. 5 represents data from four experiments.

For a further data set, the target named is T3, PKCδVIII (Homo sapiens, UniProt Q05655).
T3 construct: adipocytes from the obese donor were treated with about 10-100 nM NP627; endogenous in cells; host or cells: primary human adipocytes from visceral adipose tissue of an obese donor
T3 sequence (Q05655 1-707 isoform Q05655-2): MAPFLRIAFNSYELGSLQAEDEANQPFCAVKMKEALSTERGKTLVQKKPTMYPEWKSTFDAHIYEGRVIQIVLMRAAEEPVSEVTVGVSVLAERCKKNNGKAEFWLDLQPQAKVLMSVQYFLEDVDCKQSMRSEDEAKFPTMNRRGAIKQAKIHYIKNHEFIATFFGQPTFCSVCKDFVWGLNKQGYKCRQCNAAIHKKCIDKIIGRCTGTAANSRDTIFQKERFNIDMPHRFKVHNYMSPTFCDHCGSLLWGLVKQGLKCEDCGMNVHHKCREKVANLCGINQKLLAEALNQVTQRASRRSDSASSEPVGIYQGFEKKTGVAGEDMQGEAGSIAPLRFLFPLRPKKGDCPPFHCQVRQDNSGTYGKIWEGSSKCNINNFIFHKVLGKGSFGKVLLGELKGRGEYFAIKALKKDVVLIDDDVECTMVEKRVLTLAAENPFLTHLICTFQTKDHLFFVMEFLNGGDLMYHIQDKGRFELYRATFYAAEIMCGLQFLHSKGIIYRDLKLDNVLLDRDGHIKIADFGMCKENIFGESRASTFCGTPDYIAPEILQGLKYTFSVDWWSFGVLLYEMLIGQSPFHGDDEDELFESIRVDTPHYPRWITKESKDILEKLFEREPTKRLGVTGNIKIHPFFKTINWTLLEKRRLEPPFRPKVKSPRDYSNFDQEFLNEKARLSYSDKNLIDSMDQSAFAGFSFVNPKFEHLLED
Put plainly: Western blot on adipocytes from obese donor, PKCδVIII. The class given is cell-based. Conditions: about 10-100 nM, about 24 h. From the text:
(§2) The C-terminal fragment of PKCδI phosphorylates its substrates that mediate expression of pro-apoptotic proteins. For a functional read-out, an assay was designed to measure: (1) Bcl-xL switching to its pro-apoptotic variant Bcl-xS and (2) Caspase9b switching to its pro-apoptotic variant caspase 9a. Briefly, adipocytes were freshly isolated from human visceral adipose tissue of lean and obese donors (IRB #20295; lean BMI 22.1 and 23; obese BMI 43.7 and 44.3; non-diabetic, nonsmokers, non-cancer).
(§3) Additionally, adipocytes from the obese donor were treated with about 10-100 nM NP627 (compound 513627) for about 24 h (n=3). Expression of PKCδI_F, PKCδI_C, PKCδVIII, and β-Actin (control) were analyzed using western blotting.

In a further data set the test system is Bxl-xS and caspase9a. Put plainly: PCR based expression of pro-apoptotic variants in adipocytes from obese donor. The class given is cell-based, human. Conditions: about 10 nM, about 24 h.
Excerpt: as §2
Additionally, adipocytes from the obese donor were treated with about 10 nM of NP627 for about 24 h (n=3). Expression of Bxl-xL, Bxl-xS, caspase9a, andβ-actin (control) were analyzed using a PCR based technique (n=3).

Data set [5] has as its target T2, PKCδI. Put plainly: Western blot on adipocytes from obese donor, PKCδI cleavage. The class given is cell-based. Details: adipocytes from the obese donor were treated with about 10-100 nM NP627; endogenous in cells; host or cells: primary human adipocytes from visceral adipose tissue of an obese donor. As to conditions: about 10-100 nM, about 24 h.
Excerpt: as §2, §3

[6] abbreviates: both pre-adipocytes and mature adipocytes.

T1 sequence (P28867 whole entry): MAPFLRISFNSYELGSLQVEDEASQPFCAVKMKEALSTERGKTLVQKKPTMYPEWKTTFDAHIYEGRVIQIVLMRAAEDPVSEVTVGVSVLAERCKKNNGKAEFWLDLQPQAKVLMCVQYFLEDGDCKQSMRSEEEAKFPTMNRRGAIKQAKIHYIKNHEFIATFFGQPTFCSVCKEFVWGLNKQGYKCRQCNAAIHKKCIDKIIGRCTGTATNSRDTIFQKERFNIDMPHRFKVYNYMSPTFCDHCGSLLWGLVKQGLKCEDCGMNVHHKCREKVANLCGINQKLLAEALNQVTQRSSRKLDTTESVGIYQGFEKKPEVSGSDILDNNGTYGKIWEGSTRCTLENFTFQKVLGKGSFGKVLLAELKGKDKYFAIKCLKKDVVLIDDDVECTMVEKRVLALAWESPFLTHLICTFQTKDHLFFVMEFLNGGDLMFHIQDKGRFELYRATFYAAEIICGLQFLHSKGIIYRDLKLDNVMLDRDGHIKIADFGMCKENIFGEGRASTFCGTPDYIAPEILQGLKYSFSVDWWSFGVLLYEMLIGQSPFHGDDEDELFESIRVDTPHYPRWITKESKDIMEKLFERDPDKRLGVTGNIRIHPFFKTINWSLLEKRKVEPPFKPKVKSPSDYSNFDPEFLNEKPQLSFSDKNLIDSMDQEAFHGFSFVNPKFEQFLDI
T2 sequence (Q05655 whole entry): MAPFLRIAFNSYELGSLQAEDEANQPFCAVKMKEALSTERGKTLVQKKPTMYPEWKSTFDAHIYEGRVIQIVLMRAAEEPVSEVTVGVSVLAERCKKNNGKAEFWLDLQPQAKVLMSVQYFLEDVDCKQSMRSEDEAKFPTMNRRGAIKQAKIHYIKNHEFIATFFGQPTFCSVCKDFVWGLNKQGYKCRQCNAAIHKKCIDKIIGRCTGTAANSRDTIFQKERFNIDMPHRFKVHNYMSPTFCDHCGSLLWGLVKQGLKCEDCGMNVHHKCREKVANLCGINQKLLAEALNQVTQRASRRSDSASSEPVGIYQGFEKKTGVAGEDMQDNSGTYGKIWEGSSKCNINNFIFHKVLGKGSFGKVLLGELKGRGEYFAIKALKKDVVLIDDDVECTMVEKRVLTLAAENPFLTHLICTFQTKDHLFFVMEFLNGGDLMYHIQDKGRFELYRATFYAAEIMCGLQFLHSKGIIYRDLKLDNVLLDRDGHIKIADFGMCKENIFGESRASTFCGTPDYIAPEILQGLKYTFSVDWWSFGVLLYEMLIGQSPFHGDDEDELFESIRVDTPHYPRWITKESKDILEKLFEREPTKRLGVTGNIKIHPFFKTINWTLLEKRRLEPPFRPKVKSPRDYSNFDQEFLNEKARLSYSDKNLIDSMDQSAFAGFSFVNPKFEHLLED

As to `CCN(C/C=C/c1ccccc1)C(=O)CCc1nc2ccccc2[nH]1` [compound 72950115, 3-(1H-benzimidazol-2-yl)-N-ethyl-N-[(2E)-3-phenylprop-2-en-1-yl]propanamide], the “phosphorylation of myelin basic protein (PKCδI substrate)” value (shortened to “phosphorylation … (PKCδI substrate)”) at PKCδI [1] and on PKCδI [2] was “decreased phosphorylation” in each case. In addition, the “cleavage and release of the PKCδI catalytic domain” value was “inhibit the cleavage and release” on PKCδI [1]; “inhibited the cleavage and release” at PKCδI [2].

Consider `OCCNc1cc(-c2cc(CO)ccn2)c2cc[nH]c2n1` [compound 28578828, 2-({4-[4-(hydroxymethyl)pyridin-2-yl]-1H-pyrrolo[2,3-b]pyridin-6-yl}amino)ethanol], for which, at PKCδI [1], the “phosphorylation … (PKCδI substrate)” value was “decreased phosphorylation”; the “cleavage and release of the PKCδI catalytic domain” value was “inhibit the cleavage and release”. Further, at PKCδI [2], the “phosphorylation … (PKCδI substrate)” value is listed as “decreased phosphorylation”; the “cleavage and release of the PKCδI catalytic domain” value was “inhibited the cleavage and release”. Further, the PKCδI activity result on PKCδI [3] is recorded as “specifically inhibit PKCδI activity”.

Consider `N=C(CCN1C(=O)c2ccccc2C1=O)NNC(=O)CCCC(=O)NNC(=N)CCN1C(=O)c2ccccc2C1=O` [compound 5139627, N′~1~,N′~5~-bis[3-(1,3-dioxo-1,3-dihydro-2H-isoindo1-2-yl)propanimidoyl]pentanedihydrazide], for which the “cleavage and release of the PKCδI catalytic domain” value at PKCδI [1] was “inhibit the cleavage and release”. Further, on PKCδI [2], the “phosphorylation … (PKCδI substrate)” value is given as “decreased phosphorylation”; the “cleavage and release of the PKCδI catalytic domain” value is “inhibited the cleavage and release”. Besides, the PKCδI activity entry on PKCδI [3] is “specifically inhibit PKCδI activity”. In addition, at PKCδI [4], the “specificity for PKCδI (relative kinase activity)” value was “specificity for PKCδI”. Besides, in the data set with other PKCs, the “other PKC isozyme activities” value is “not inhibited”. Also, the “cellular toxicity (cell viability)” value in the data set with obese adipocytes is “did not appear to cause cellular toxicity”. For the same compound, the “PKCδVIII (alternatively spliced variant)” value on PKCδVIII was “not inhibited”. In the data set on Bxl-xS and caspase9a, the “expression of Bxl-xS” value is given as “decrease expression” and the “expression of caspase9a” value is reported as “decrease expression”. Moreover, at PKCδI [5], the “cleavage of PKCδI” value is on record as “specifically inhibits cleavage of PKCδI”.

On to `CN(Cc1cnccn1)C(=O)c1cccc(C#CC(C)(C)O)c1` [compound 43844983, 3-(3-hydroxy-3-methylbut-1-yn-1-yl)-N-methyl-N-(pyrazin-2-ylmethyl)benzamide], for which, at PKCδI [1], the “phosphorylation … (PKCδI substrate)” value was “decreased phosphorylation”; the “cleavage and release of the PKCδI catalytic domain” value was “inhibit the cleavage and release”. Further, on PKCδI [2] (setting [6]), the “inhibition of PKCδI cleavage” value is reported as “completely inhibit” and the “inhibition of phosphorylation of MBP” value is on record as “completely inhibit”. For the same compound, on PKCδI [2], the “phosphorylation … (PKCδI substrate)” value is reported as “decreased phosphorylation”; the “cleavage and release of the PKCδI catalytic domain” value is “inhibited the cleavage and release”.

Turning to `CC(C)(O)C(=O)C=Cc1ccc2c(c1)OCO2` [compound 5320091, 1-(1,3-benzodioxol-5-yl)-4-hydroxy-4-methyl-1-penten-3-one], the “phosphorylation … (PKCδI substrate)” value at PKCδI [1] and at PKCδI [2] was “decreased phosphorylation” throughout. In addition, the “cleavage and release of the PKCδI catalytic domain” value is “inhibit the cleavage and release” on PKCδI [1]; “inhibited the cleavage and release” on PKCδI [2].

For the compound `Cc1nc2c(c(N(C)C)n1)CCN(C(=O)[C@@H]1C[C@@H](O)CN1)C2` [compound 61397826, (3R,5S)-5-{[4-(dimethylamino)-2-methyl-5,8-dihydropyrido[3,4-d]pyrimidin-7(6H)-yl]carbonyl}-3-pyrrolidinol], on PKCδI [1], the “phosphorylation … (PKCδI substrate)” value is “decreased phosphorylation”; the “cleavage and release of the PKCδI catalytic domain” value is “inhibit the cleavage and release”. In addition, at PKCδI [2], the “phosphorylation … (PKCδI substrate)” value is “decreased phosphorylation”; the “cleavage and release of the PKCδI catalytic domain” value is “inhibited the cleavage and release”.
